# Laboratory results as given in patent US12251383B2, “Methods and compositions for KRAS inhibitors” (The Board of Regents of the University of Texas System, priority 2019, dated 2025).
# “Also recorded” adds a separate entry of the source.
# Assays:
# [1] = target: GDP-bound KRAS^WT (Homo sapiens, UniProt P01116); assay: MST binding, GDP-bound KRAS WT; conditions: GDP state
# Description: FIGS. 1A-1D show representative data for the predicted binding mode and measured affinity of disclosed compound 11 to KRAS. (FIG. 1A) Structure of the catalytic domain of KRAS used for the virtual screening. Lobe1 (residues 1-86) and lobe2 (residues 87-166) are highlighted in different colors, as well as switches 1 (residues 30-40) and 2 (residues 60-75). The location of the target allosteric pocket p1 is indicated. (FIG. 1B) Chemical structure of compound 11. (FIG. 1C) Predicted binding pose of compound 11, with the key residues that make polar or vdW contacts with the ligand labeled. (FIG. 1D) Microscale thermophoresis (MST) experiments indicating direct binding of compound 11 to KRAS, along with dissociation constants (KD) derived from the curves. Changes in fluorescence upon titration of […] KRAS with increasing concentration of compound are shown: KRAS^WT (red), KRAS^G12C (green), KRAS^G12D (purple) and KRAS^Q61M (blue), each bound to the non-hydrolyzable GTP analogue, guanylyl imidodiphosphate (GNP). The same experiments indicated no binding to GDP-bound KRAS^G12D and KRAS^WT as well as Rap1B, which was used as control. […]
# [2] = target: KRAS (Homo sapiens, UniProt P01116); assay: Nucleotide release assay (intrinsic and SOS-mediated); type: biochemical
# Sequence of KRAS (P01116 1-188 isoform P01116-2): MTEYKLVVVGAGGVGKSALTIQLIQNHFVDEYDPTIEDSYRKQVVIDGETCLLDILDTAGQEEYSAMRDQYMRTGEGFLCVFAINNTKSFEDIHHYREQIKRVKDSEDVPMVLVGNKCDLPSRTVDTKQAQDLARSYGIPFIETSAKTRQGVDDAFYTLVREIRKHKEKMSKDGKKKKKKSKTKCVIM
# Description: (FIG. 6A) Chemical structure of compound 13, an analogue of 11 without a benzene on the pyrimidine core. (FIG. 6B) Predicted binding pose of compound 13. […] See legend of FIGS. 2A-2C for additional details. […] (FIG. 6D) Fluorescence polarization of ^BGTP-γ-SKRAS (0.5 μM) with increasing concentration of GST-Raf^RBD in the absence (red) and presence (green) of 20 μM compound 13. (FIG. 6E) Level of GFP-KRAS^G12D pulled down by GST-Raf^RBD after treatment of whole cell lysates with 10 μM of compound 13 (representative Western blots are shown at the top). The RBD sequence length was 1-149 in the fluorescence polarization assay (FIG. 6D) and 51-131 in the pull-down assay (FIG. 6E). (FIG. 6F) Intrinsic (red) and SOS-mediated (blue) nucleotide release rates were determined. Briefly, fluorescence intensity data obtained in a mixture of 0.5 μM KRAS (and SOS), 100 μM GTP and 0 or 50 μM of compound 13 (top), derived from the changes in during the reaction KRAS^BGDP+GTP→KRAS^GTP+BGDP (bottom). Rates were calculated using single exponential fits starting from 120 s, and are show in the inset to the right of the graph.
# Nucleotide exchange and release assays. Loading of fluorescent-labeled GDP (BODIPY-GDP; BGDP from hereon) to KRAS was conducted following previous reports (23, 47), with minor modifications. Purified KRAS was buffer-exchanged in NAP-5 column (GE Life Sciences) in low Mg^2+ buffer (25 mM Tris pH 7.5, 50 mM NaCl, and 0.5 mM MgCl2). The eluate was incubated with 10-fold molar excess of BGDP (Life Technologies) in the presence of 5 mM EDTA and 1 mM DTT for 1.5 h at 20° C. in the dark. […] The concentration of ^BGDPKRAS was determined using Bradford assay and a BGDP standard curve. Then the effect of ligands on the intrinsic rate of nucleotide release was monitored using the decrease in fluorescence with time as BGDP dissociates from KRAS in a 100 μL reaction mixture (96-well plate) of 0.5 μM B^GDPKRAS, 100 μM GTP and varying concentrations of ligand (0 to 25 μM); GTP was added just before measurements. To measure the rate of SOS-mediated nucleotide release, 0.5 μM SOS (residues 564-1049, Cytoskeleton Inc) was added after adding GTP, and fluorescence was immediately read (excitation: 485 nm, emission: 510 nm) using Tecan Infinite M200 plate reader. Intrinsic and SOS-mediated nucleotide exchange rates were monitored with the fluorescence intensity increase of BGTP as it displaces GDP from KRAS. […] Experiments were conducted with minimal light and the reaction was monitored for 2 h at room temperature. Fluorescence intensities were normalized at 120 s and the traces were fit with linear or single exponential functions (Igor Pro, Wavemetrics).
# The effect of compound 11 on intrinsic and GEF-dependent nucleotide release and exchange reactions was determined. […]
# Sequence of GDP-bound KRAS^WT (P01116 1-188 isoform P01116-2): as above
Structure (SMILES),binding (in words) [1],effect on SOS-mediated nucleotide release rate [2],effect on intrinsic nucleotide release rate [2],effect on SOS-mediated nucleotide release rate ([2]; 50 μM compound),effect on intrinsic nucleotide release rate ([2]; 50 μM compound)
"Cc1nn2c(N3CCN(CCO)CC3)cc(-c3ccccc3)nc2c1-c1ccccc1 [Compound 11, 2-[4-(8-methyl-3,9-diphenyl-2,6,7-triazabicyclo[4.3.0]nona-2,4,7,9-tetraen-5-yl)piperazin-1-yl]ethanol]",no binding; also recorded: does not bind,slightly reduced; also recorded: only modestly decreased,no effect,–,–
Cc1cc(N2CCN(CCO)CC2)n2nc(C)c(-c3ccccc3)c2n1 [Compound 13],does not bind,–,–,dramatically increased,dramatically increased
